Results on nine compounds are retold here after ChEMBL document CHEMBL1933014, “Synthesis and antihyperglycemic evaluation of new 2,4-thiazolidinediones having biodynamic aryl sulfonylurea moieties” (2012).

This experiment relates to Rattus norvegicus. Briefly: Antihyperglycemic activity in normal albino rat sucrose-loaded model assessed as inhibition of postprandial rise in blood glucose level at 100 mg/kg, po pretreated 30 mins before sucrose challenge measured for 2 hrs during oral glucose tolerance test. The format is functional. On the set-up: scale not given: the % may be the effect or the level left.
`Cc1ccc(S(=O)(=O)NC(=O)NCC2SC(=O)NC2=O)cc1` (centres undefined): the Activity is 11.5%.
The figure for `O=C(NCC1SC(=O)NC1=O)NS(=O)(=O)c1ccc(Cl)cc1Cl` (centres undefined) is 14.3%; for `O=C(NCC1SC(=O)NC1=O)NS(=O)(=O)c1ccccc1` (centres undefined) it is 15.8%; for `O=C(NCC1SC(=O)NC1=O)NS(=O)(=O)c1ccc(Br)cc1` (centres undefined) it is 9.44%.
For the compound `O=C(NCC1SC(=O)NC1=O)NS(=O)(=O)c1ccc(Cl)cc1` (centres undefined), the Activity is 17.2%.
With `O=C(NCC1SC(=O)NC1=O)NS(=O)(=O)c1ccc(Br)cc1Br` (centres undefined), the Activity came to 8.66%.
Next, `O=C(NCC1SC(=O)NC1=O)NS(=O)(=O)c1ccc(F)cc1` (centres undefined): 10.7%; `CN(C)C(=N)NC(=N)N` [METFORMIN]: 27%; `O=C(NCC1SC(=O)NC1=O)NS(=O)(=O)c1cc(Cl)ccc1Cl` (centres undefined): 16.5%.
